pEC50: −log10 of the molar value. *1 amine or outer side, *2 acyl side, *3 side chain or, on linkers, in order; H or OH if unused. Where a SMILES comes first, the peptide text is derived from it. Side-chain parts run from the residue outwards. [ ]: non-standard residue; d: D form. The star is where a group is joined. C20 diacid = O=C(O)CCCCCCCCCCCCCCCCCCC(=O)*; C18 diacid = O=C(O)CCCCCCCCCCCCCCCCC(=O)*; γGlu = O=C(O)[C@H](CCC(=O)[*:2])N[*:1]; NMeI = CC[C@H](C)[C@H](NC)C(=O)O; αMeL = CC(C)C[C@](C)(N)C(=O)O; AEEA = NCCOCCOCC(=O)O; Aib = CC(C)(N)C(=O)O
Experiments:
[1] = Pharmacokinetics in male Sprague Dawley rats after subcutaneous administration; format: in vivo; conditions: plasma, rat, SC, 0.1 mg/kg
[2] = In vitro plasma stability, minipig plasma; format: in vitro ADME; parameters: remaining at 2 h: dose or concentration left out as unconfirmed; conditions: Minipig PLM, 37° C.
CFR1R receptor = target: T1, CFR1R receptor (Homo sapiens, UniProt P34998); test: Activity at anti-target CFR1R receptor, cAMP assay in CRF1R-overexpression CHO-K1 cells; format: cell-based; conditions: 100% = Sauvagine at 100 nM; for pEC50: cAMP
T1 construct: host or cells: CHO-K1 (clone 2)
T1 sequence (P34998 24-415): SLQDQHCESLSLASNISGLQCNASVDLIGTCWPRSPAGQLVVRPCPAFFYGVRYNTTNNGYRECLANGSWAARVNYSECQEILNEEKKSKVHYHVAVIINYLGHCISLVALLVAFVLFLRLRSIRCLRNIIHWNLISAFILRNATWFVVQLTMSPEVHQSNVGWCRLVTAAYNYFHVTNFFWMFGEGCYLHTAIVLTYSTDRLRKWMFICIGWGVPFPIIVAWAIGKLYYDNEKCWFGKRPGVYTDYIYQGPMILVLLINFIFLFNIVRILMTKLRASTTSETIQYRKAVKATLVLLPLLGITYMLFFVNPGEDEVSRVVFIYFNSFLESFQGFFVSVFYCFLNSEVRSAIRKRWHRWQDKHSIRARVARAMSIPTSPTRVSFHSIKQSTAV
Procedure, shortened: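 cAMP readout in CRF1R-overexpressing CHO-K1 cells (clone 2), run as for the TeloHAEC assay at 4000 cells/well final. Cells came from cryopreserved banks. Sauvagine at 100 nM defined 100% activation.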

rat CRF2 a = target: T2, rat CRF2 a (Rattus norvegicus, UniProt P47866); test: Activity at rat CRF2 a, cAMP assay in A7R5 rat aortic smooth muscle cells; format: cell-based; conditions: 0% HSA, 100% = Sauvagine at 100 nM
T2 construct: host or cells: A7R5 rat aortic smooth muscle cells
T2 sequence (P47866 27-431 isoform P47866-2 limits assumed): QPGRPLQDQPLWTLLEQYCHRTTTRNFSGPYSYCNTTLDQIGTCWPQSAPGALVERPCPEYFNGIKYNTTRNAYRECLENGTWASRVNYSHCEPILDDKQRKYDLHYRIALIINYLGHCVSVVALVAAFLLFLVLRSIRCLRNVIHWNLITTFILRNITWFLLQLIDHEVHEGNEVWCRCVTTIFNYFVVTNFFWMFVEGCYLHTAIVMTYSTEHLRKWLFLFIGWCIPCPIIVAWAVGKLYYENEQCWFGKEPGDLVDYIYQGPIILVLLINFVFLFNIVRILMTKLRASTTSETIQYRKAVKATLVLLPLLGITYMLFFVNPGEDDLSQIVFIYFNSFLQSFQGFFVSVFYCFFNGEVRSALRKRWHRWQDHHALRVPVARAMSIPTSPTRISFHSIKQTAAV
Procedure, shortened: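 cAMP response measured in frozen-stock A7R5 rat aortic smooth muscle cells, 5000 cells/well final. 100% activation defined by Sauvagine at 100 nM in control wells.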

in vitro = test: in vitro; parameters: dose or concentration left out as unconfirmed; conditions: dog, plasma

AUC(0-t) [1] [ng·h/mL]	Cmax [1] [ng/mL]	remaining at 2 h ([2]; pig, plasma) [%]	Emax (% I) (CFR1R receptor)	pEC50 (CFR1R receptor)	% remaining at 2 hours [2] [%]	pEC50 (rat CRF2 a)	remaining at 2 h (in vitro) [%]	SMILES
4430	291	106	9	< 6.60	–	–	–	CC[C@H](C)[C@H](NC(C)=O)C(=O)N[C@H](C(=O)N[C@@H](CC(C)C)C(=O)N[C@@H](CO)C(=O)N[C@@H](CC(C)C)C(=O)N[C@@H](CC(=O)O)C(=O)N[C@@H](C(=O)N1CCC[C@H]1C(=O)N[C@H](C(=O)N[C@@H](CCCCN)C(=O)N[C@@](C)(CC(C)C)C(=O)N[C@@H](CCCCNC(=O)COCCOCCNC(=O)COCCOCCNC(=O)CC[C@H](NC(=O)CCCCCCCCCCCCCCCCC(=O)O)C(=O)O)C(=O)N[C@@H](CCCCN)C(=O)N[C@H](C(=O)N[C@@H](CC(C)C)C(=O)N[C@@H](CC(C)C)C(=O)N[C@@H](CCC(=O)O)C(=O)N[C@@H](CCC(N)=O)C(=O)N[C@@H](CCC(=O)O)C(=O)N[C@@H](CCCCN)C(=O)N[C@@H](CCC(N)=O)C(=O)N[C@@H](CCCCN)C(=O)N[C@@H](CCCCN)C(=O)N[C@@H](CCC(N)=O)C(=O)N[C@@H](CCCNC(=N)N)C(=O)N[C@@H](CCC(=O)O)C(=O)N[C@@H](CCC(N)=O)C(=O)N[C@@H](C)C(=O)N[C@@H](CCC(=O)O)C(=O)N[C@H](C(=O)N[C@@H](CC(N)=O)C(=O)NC(C)(C)C(=O)N[C@@H](CCC(N)=O)C(=O)N[C@H](C(=O)N[C@@H](CC(C)C)C(=O)N[C@@H](C)C(=O)N[C@@H](CCC(N)=O)C(=O)N[C@H](C(N)=O)C(C)C)[C@@H](C)CC)[C@@H](C)O)[C@@H](C)CC)[C@@H](C)CC)C(C)C)C(C)C [compound 110] (Ac-IVLSLD[dV]PIK[αMeL]K([AEEA-AEEA-γGlu-C18 diacid])KILLEQEKQKKQREQAETN[Aib]QILAQV-NH2)
3540	225	–	7	< 6.60	126	–	–	CC[C@H](C)[C@H](NC)C(=O)N[C@H](C(=O)N[C@@H](CC(C)C)C(=O)N[C@@H](CO)C(=O)N[C@@H](CC(C)C)C(=O)N[C@@H](CC(=O)O)C(=O)N[C@@H](C(=O)N1CCC[C@H]1C(=O)N[C@H](C(=O)N[C@@H](CCCCN)C(=O)N[C@@H](CC(C)C)C(=O)N[C@@H](CCCCNC(=O)COCCOCCNC(=O)COCCOCCNC(=O)CC[C@H](NC(=O)CCCCCCCCCCCCCCCCC(=O)O)C(=O)O)C(=O)N[C@@H](CCCCN)C(=O)N[C@H](C(=O)N[C@@H](CC(C)C)C(=O)N[C@@H](CC(C)C)C(=O)N[C@@H](CCC(=O)O)C(=O)N[C@@H](CCC(N)=O)C(=O)N[C@@H](CCC(=O)O)C(=O)N[C@@H](CCCCN)C(=O)N[C@@H](CCC(N)=O)C(=O)N[C@@H](CCCCN)C(=O)N[C@@H](CCCCN)C(=O)N[C@@H](CCC(N)=O)C(=O)N[C@@H](CCCNC(=N)N)C(=O)N[C@@H](CCC(=O)O)C(=O)N[C@@H](CCC(N)=O)C(=O)N[C@@H](C)C(=O)N[C@@H](CCC(=O)O)C(=O)N[C@H](C(=O)N[C@@H](CC(N)=O)C(=O)NC(C)(C)C(=O)N[C@@H](CCC(N)=O)C(=O)N[C@H](C(=O)N[C@@H](CC(C)C)C(=O)N[C@@H](C)C(=O)N[C@@H](CCC(N)=O)C(=O)N[C@H](C(N)=O)C(C)C)[C@@H](C)CC)[C@@H](C)O)[C@@H](C)CC)[C@@H](C)CC)C(C)C)C(C)C [compound 118] (H-[NMeI]VLSLD[dV]PIKLK([AEEA-AEEA-γGlu-C18 diacid])KILLEQEKQKKQREQAETN[Aib]QILAQV-NH2)
5770	197	–	42	–	–	10.22	–	CC[C@H](C)[C@H](NC(C)=O)C(=O)N[C@H](C(=O)N[C@@H](CC(C)C)C(=O)N[C@@H](CO)C(=O)N[C@@H](CC(C)C)C(=O)N[C@@H](CC(=O)O)C(=O)N[C@@H](C(=O)N1CCC[C@H]1C(=O)N[C@H](C(=O)N[C@@H](CCCCN)C(=O)N[C@@H](CC(C)C)C(=O)N[C@@H](CCCCNC(=O)CC[C@H](NC(=O)CCCCCCCCCCCCCCCCCCC(=O)O)C(=O)O)C(=O)N[C@@H](CCCCN)C(=O)N[C@H](C(=O)N[C@@H](CC(C)C)C(=O)N[C@@H](CC(C)C)C(=O)N[C@@H](CCC(=O)O)C(=O)N[C@@H](CCC(N)=O)C(=O)N[C@@H](CCC(=O)O)C(=O)N[C@@H](CCCCN)C(=O)N[C@@H](CCC(N)=O)C(=O)N[C@@H](CCCCN)C(=O)N[C@@H](CCCCN)C(=O)N[C@@H](CCC(N)=O)C(=O)N[C@@H](CCCNC(=N)N)C(=O)N[C@@H](CCC(=O)O)C(=O)N[C@@H](CCC(N)=O)C(=O)N[C@@H](C)C(=O)N[C@@H](CCC(=O)O)C(=O)N[C@H](C(=O)N[C@@H](CC(N)=O)C(=O)NC(C)(C)C(=O)N[C@@H](CCC(N)=O)C(=O)N[C@H](C(=O)N[C@@H](CC(C)C)C(=O)N[C@@H](C)C(=O)N[C@@H](CCC(N)=O)C(=O)N[C@H](C(N)=O)C(C)C)[C@@H](C)CC)[C@@H](C)O)[C@@H](C)CC)[C@@H](C)CC)C(C)C)C(C)C [compound 206] (Ac-IVLSLD[dV]PIKLK([γGlu-C20 diacid])KILLEQEKQKKQREQAETN[Aib]QILAQV-NH2)
9410	325	–	19	< 6.60	–	–	–	CC[C@H](C)[C@H](NC)C(=O)N[C@H](C(=O)N[C@@H](CC(C)C)C(=O)N[C@@H](CO)C(=O)N[C@@H](CC(C)C)C(=O)N[C@@H](CC(=O)O)C(=O)N[C@@H](C(=O)N1CCC[C@H]1C(=O)N[C@H](C(=O)N[C@@H](CCCCN)C(=O)N[C@@H](CC(C)C)C(=O)N[C@@H](CCCCNC(=O)CC[C@H](NC(=O)CCCCCCCCCCCCCCCCCCC(=O)O)C(=O)O)C(=O)N[C@@H](CCCCN)C(=O)N[C@H](C(=O)N[C@@H](CC(C)C)C(=O)N[C@@H](CC(C)C)C(=O)N[C@@H](CCC(=O)O)C(=O)N[C@@H](CCC(N)=O)C(=O)N[C@@H](CCC(=O)O)C(=O)N[C@@H](CCCCN)C(=O)N[C@@H](CCC(N)=O)C(=O)N[C@@H](CCCCN)C(=O)NC(C)(C)C(=O)N[C@@H](CCC(N)=O)C(=O)N[C@@H](CCCNC(=N)N)C(=O)N[C@@H](CCC(=O)O)C(=O)N[C@@H](CCC(N)=O)C(=O)N[C@@H](C)C(=O)N[C@@H](CCC(=O)O)C(=O)N[C@H](C(=O)N[C@@H](CC(N)=O)C(=O)NC(C)(C)C(=O)N[C@@H](CCC(N)=O)C(=O)N[C@H](C(=O)N[C@@H](CC(C)C)C(=O)N[C@@H](C)C(=O)N[C@@H](CCC(N)=O)C(=O)N[C@H](C(N)=O)C(C)C)[C@@H](C)CC)[C@@H](C)O)[C@@H](C)CC)[C@@H](C)CC)C(C)C)C(C)C [compound 215] (H-[NMeI]VLSLD[dV]PIKLK([γGlu-C20 diacid])KILLEQEKQK[Aib]QREQAETN[Aib]QILAQV-NH2)
4120	115	–	24	< 6.60	–	–	102	CC[C@H](C)[C@H](NC)C(=O)N[C@H](C(=O)N[C@@H](CC(C)C)C(=O)N[C@@H](CO)C(=O)N[C@@H](CC(C)C)C(=O)N[C@@H](CC(=O)O)C(=O)N[C@@H](C(=O)N1CCC[C@H]1C(=O)N[C@H](C(=O)N[C@@H](CCCCN)C(=O)N[C@@H](CC(C)C)C(=O)N[C@@H](CCCCNC(=O)CC[C@H](NC(=O)CCCCCCCCCCCCCCCCCCC(=O)O)C(=O)O)C(=O)N[C@@H](CCCCN)C(=O)N[C@H](C(=O)N[C@@H](CC(C)C)C(=O)N[C@@H](CC(C)C)C(=O)N[C@@H](CCC(=O)O)C(=O)N[C@@H](CCC(N)=O)C(=O)N[C@@H](CCC(=O)O)C(=O)N[C@@H](CCCCN)C(=O)N[C@@H](CCC(N)=O)C(=O)N[C@@H](CCCCN)C(=O)N[C@@H](CCC(=O)O)C(=O)N[C@@H](CCC(N)=O)C(=O)N[C@@H](CCCNC(=N)N)C(=O)N[C@@H](CCC(=O)O)C(=O)N[C@@H](CCC(N)=O)C(=O)N[C@@H](C)C(=O)N[C@@H](CCC(=O)O)C(=O)N[C@H](C(=O)N[C@@H](CC(N)=O)C(=O)NC(C)(C)C(=O)N[C@@H](CCC(N)=O)C(=O)N[C@H](C(=O)N[C@@H](CC(C)C)C(=O)N[C@@H](C)C(=O)N[C@@H](CCC(N)=O)C(=O)N[C@H](C(N)=O)C(C)C)[C@@H](C)CC)[C@@H](C)O)[C@@H](C)CC)[C@@H](C)CC)C(C)C)C(C)C [compound 218] (H-[NMeI]VLSLD[dV]PIKLK([γGlu-C20 diacid])KILLEQEKQKEQREQAETN[Aib]QILAQV-NH2)

From US20260001928A1 (CORTERIA PHARMACEUTICALS, priority 2022, published 2026)
